Reference: patent publication US10196390B2, “TYK2 inhibitors and uses thereof” (Nimbus Lakshmi, Inc., priority 2014, dated 2019)

Columns and labels:
JAK2 = JAK2 (Homo sapiens (Human), UniProt O60674); assay: JAK2 activity inhibition assay (radioactive kinase assay / Caliper assay); type: biochemical; details: read-out: JAK2 Ki
Protocol: The caliper machine employs an off chip mobility shift assay to detect phosphorylated peptide substrates from kinase assays, using microfluidics technology. […] Compounds are serially diluted in DMSO then further diluted in assay buffer (25 mM HEPES, pH 7.5, 0.01% Brij-35, 0.01% Triton, 0.5 mM EGTA). 5 ul of diluted compound was added into wells first, then 10 ul of enzyme mix was added into wells, followed by 10 uL of substrate mix (peptide and ATP in 10 mM MgCl2) to start reaction. Reaction was incubated at 28° C. for 25 min and then added 25 ul stop buffer (100 mM HEPES, 0.015% Brij-35, 50 mM EDTA), followed by reading with Caliper.

TYK2 = TYK2 (Homo sapiens (Human), UniProt P29597); assay: Tyk2 activity inhibition assay (radioactive kinase assay / Caliper assay); type: biochemical
Sequence of TYK2 (P29597 whole entry): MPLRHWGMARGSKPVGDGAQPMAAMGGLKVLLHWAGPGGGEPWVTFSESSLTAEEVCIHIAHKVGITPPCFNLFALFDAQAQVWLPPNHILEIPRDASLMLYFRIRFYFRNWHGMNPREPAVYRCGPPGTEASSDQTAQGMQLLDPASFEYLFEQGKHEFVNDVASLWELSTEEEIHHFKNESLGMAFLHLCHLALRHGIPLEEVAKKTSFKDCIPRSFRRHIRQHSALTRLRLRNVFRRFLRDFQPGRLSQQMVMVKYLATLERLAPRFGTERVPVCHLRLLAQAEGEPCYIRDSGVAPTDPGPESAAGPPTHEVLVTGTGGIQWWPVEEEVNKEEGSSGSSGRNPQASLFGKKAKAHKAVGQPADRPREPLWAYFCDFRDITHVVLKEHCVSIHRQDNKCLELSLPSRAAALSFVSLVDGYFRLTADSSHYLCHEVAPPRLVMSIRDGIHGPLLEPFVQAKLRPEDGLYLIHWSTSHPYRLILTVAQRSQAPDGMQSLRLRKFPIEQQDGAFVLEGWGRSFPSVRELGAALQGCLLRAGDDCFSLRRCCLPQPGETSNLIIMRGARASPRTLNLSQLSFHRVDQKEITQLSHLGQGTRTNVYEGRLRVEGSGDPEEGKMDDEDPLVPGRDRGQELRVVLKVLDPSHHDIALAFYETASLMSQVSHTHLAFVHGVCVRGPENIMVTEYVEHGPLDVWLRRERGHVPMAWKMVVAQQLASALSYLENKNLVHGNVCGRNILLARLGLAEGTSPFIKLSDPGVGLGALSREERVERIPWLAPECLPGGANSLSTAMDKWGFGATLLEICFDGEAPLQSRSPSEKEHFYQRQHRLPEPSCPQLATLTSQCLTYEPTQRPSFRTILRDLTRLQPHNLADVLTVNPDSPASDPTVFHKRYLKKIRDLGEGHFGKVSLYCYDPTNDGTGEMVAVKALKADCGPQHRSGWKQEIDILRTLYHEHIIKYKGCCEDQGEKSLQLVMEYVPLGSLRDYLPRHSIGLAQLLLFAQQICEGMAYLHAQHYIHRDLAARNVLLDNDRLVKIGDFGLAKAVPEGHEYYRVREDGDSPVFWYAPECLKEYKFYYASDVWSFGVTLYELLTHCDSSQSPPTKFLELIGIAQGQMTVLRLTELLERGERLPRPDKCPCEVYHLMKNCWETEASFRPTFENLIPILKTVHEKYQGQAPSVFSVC
Protocol: Peptide substrate, [[…]], (20 μM) is prepared in reaction buffer (20 mM Hepes pH 7.5, 10 mM MgCl2, 1 mM EGTA, 0.02% Brij35, 0.02 mg/mL BSA, […], 2 mM DTT, 1% DMSO. TYK2 (Invitrogen) kinase is added, followed by compounds in DMSO. 33PATP is added to initiate the reaction in ATP at 10 μM. Kinase reaction is incubated for 120 min at room temp and reactions are spotted onto P81 ion exchange paper (Whatman #3698-915), and then washed extensively in 0.75% phosphoric acid, prior to reading the radioactivity counts. For JAK2 (Invitrogen) kinase assay the peptide substrate poly[Glu:Tyr](4:1), 0.2 mg/ml is used, in the reaction carried out the same as for TYK2.
The caliper machine employs an off chip mobility shift assay to detect phosphorylated peptide substrates from kinase assays, using microfluidics technology. The assays are carried out at ATP concentration equivalent to the ATP Km, and at 1 mM ATP. Compounds are serially diluted in DMSO then further diluted in assay buffer (25 mM HEPES, pH 7.5, 0.01% Brij-35, 0.01% Triton, 0.5 mM EGTA). 5 ul of diluted compound was added into wells first, then 10 ul of enzyme mix was added into wells, followed by 10 uL of substrate mix (peptide and ATP in 10 mM MgCl2) to start reaction. Reaction was incubated at 28° C. for 25 min and then added 25 ul stop buffer (100 mM HEPES, 0.015% Brij-35, 50 mM EDTA), followed by reading with Caliper. JAK2 at 1 nM final concentration and TYK2 at 9.75 nM are from Carna, and substrates used are ATP at 20 and 16 uM, respectively. JAK2 assay uses peptide 22 and TYK2 uses peptide 30 (Caliper), each at 3 uM.

Sequence of JAK2 (O60674 whole entry): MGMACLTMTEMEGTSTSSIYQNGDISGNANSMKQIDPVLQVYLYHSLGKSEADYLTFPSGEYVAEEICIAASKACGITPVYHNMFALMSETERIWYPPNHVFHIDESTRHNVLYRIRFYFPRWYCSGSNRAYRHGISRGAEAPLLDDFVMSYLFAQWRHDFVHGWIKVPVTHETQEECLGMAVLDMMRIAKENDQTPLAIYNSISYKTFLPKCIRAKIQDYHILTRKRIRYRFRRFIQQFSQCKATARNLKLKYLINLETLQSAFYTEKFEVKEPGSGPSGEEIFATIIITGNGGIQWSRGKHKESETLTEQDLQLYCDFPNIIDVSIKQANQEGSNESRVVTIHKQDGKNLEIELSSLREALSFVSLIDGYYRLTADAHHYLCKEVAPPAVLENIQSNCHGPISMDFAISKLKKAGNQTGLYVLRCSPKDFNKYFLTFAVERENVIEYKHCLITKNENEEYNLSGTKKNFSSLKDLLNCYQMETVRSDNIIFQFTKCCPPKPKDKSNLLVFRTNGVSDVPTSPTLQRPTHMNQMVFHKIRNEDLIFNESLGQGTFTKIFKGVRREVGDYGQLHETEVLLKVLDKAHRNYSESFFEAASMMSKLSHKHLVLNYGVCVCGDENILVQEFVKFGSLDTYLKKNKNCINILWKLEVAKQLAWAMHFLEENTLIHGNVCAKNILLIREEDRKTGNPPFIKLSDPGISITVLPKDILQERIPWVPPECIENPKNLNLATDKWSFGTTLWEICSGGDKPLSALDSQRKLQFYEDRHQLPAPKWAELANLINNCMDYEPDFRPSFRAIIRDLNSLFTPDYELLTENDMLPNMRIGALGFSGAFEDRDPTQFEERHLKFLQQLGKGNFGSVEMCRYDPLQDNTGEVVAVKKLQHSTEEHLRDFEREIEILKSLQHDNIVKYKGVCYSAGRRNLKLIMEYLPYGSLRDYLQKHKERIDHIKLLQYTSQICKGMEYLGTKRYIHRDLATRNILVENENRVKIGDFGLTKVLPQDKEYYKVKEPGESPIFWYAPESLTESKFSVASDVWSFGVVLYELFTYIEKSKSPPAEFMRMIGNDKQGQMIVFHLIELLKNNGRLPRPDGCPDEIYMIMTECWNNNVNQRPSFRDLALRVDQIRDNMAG

Ki (JAK2) | Ki (TYK2) | SMILES
< 10 nM | < 10 nM | CN1CCNC(C)(c2ccc(Nc3cc(-c4c(F)cccc4F)nc4c3C(=O)NC4)nc2)C1=O (stereo not drawn) [Compound I-223, 2-(2,6-difluorophenyl)-4-((5-(2,4-dimethyl-3-oxopiperazin-2-yl)pyridin-2-yl)amino)-6,7-dihydro-5H-pyrrolo[3,4-b]pyridin-5-one]
< 10 nM | < 10 nM | CN1CCN[C@@](C)(c2ccc(Nc3cc(-c4c(F)cccc4F)nc4c3C(=O)NC4)nc2)C1=O [Compound I-225, (S)-2-(2,6-difluorophenyl)-4-((5-(2,4-dimethyl-3-oxopiperazin-2-yl)pyridin-2-yl)amino)-6,7-dihydro-5H-pyrrolo[3,4-b]pyridin-5-one]
100 to 1000 nM | < 10 nM | COCCOc1ccc(Nc2nc(-c3c(F)cccc3F)nc3c2C(=O)NC3)cc1 [Compound I-185, 2-(2,6-difluorophenyl)-4-((4-(2-methoxy-ethoxy)-phenyl)amino)-6,7-dihydro-5H-pyrrolo[3,4-d]pyrimidin-5-one]
10 to 100 nM | < 10 nM | C[C@]1(c2ccc(Nc3nc(-c4c(F)cccc4F)nc4c3C(=O)NC4)cc2)NC(=O)NC1=O [Compound I-174, (R)-5-(4-((2-(2,6-difluorophenyl)-5-oxo-6,7-dihydro-5H-pyrrolo[3,4-d]pyrimidin-4-yl)amino)phenyl)-5-methylimidazolidine-2,4-dione]
10 to 100 nM | < 10 nM | COC(=O)Cc1ccc(Nc2cc(-c3c(F)cccc3Cl)nc3c2C(=O)NC3)nc1 [Compound I-200, methyl 2-(6-((2-(2-chloro-6-fluorophenyl)-5-oxo-6,7-dihydro-5H-pyrrolo[3,4-b]pyridin-4-yl)amino)pyridin-3-yl)acetate]
10 to 100 nM | < 10 nM | CN1CC2(C1)CN(c1ccc(Nc3cc(-c4c(F)cccc4F)nc4c3C(=O)NC4)nc1)C2 [Compound I-187, 2-(2,6-difluorophenyl)-4-((5-(6-methyl-2,6-diazaspiro-[3.3]heptan-2-yl)pyridin-2-yl)amino)-6,7-dihydro-5-pyrrolo[3,4-b]pyridin-5-one]
100 to 1000 nM | 10 to 100 nM | NC(=O)c1cc(F)c(-c2cc(Nc3ccc(N4CCOCC4)cn3)c3c(n2)CNC3=O)c(F)c1 [Compound I-250, 3,5-difluoro-4-(4-((5-morpholinopyridin-2-yl)amino)-5-oxo-6,7-dihydro-5H-pyrrolo[3,4-b]pyridin-2-yl)benzamide]
10 to 100 nM | < 10 nM | C[C@@]1(c2ccc(Nc3nc(-c4c(F)cccc4F)nc4c3C(=O)NC4)cc2)NC(=O)NC1=O [Compound I-173, (S)-5-(4-((2-(2,6-difluorophenyl)-5-oxo-6,7-dihydro-5H-pyrrolo[3,4-d]pyrimidin-4-yl)amino)phenyl)-5-methylimidazolidine-2,4-dione]
10 to 100 nM | < 10 nM | O=C1NCc2nc(-c3c(F)cccc3F)cc(Nc3ccc(N4CCNCC4)cn3)c21 [Compound I-162, 2-(2,6-difluorophenyl)-4-((5-(piperazin-1-yl)pyridin-2-yl)amino)-6,7-dihydro-5H-pyrrolo[3,4-b]pyridin-5-one]
100 to 1000 nM | < 10 nM | O=C1NC(=O)C(c2ccc(Nc3nc(-c4c(F)cccc4F)nc4c3C(=O)NC4)cc2)S1 (stereo not drawn) [Compound I-192, 5-(4-((2-(2,6-difluorophenyl)-5-oxo-6,7-dihydro-5H-pyrrolo[3,4-d]pyrimidin-4-yl)amino)phenyl)thiazolidine-2,4-dione]

The remaining lines, values behind:

SMILES | Ki (JAK2) | Ki (TYK2)
Cn1cc(Nc2nc(-c3c(F)cccc3F)nc3c2C(=O)NC3)cn1 [Compound I-160, 2-(2,6-difluorophenyl)-4-((1-methyl-1H-pyrazol-4-yl)amino)-6,7-dihydro-5H-pyrrolo[3,4-d]pyrimidin-5-one] | > 1000 nM | 10 to 100 nM
O=C1NCc2nc(-c3c(F)cccc3F)nc(Nc3ccc(CC(=O)N4CCOC[C@@H]4C(=O)O)cc3)c21 [Compound I-194, (R)-4-(2-(4-((2-(2,6-difluorophenyl)-5-oxo-6,7-dihydro-5H-pyrrolo[3,4-d]pyrimidin-4-yl)amino)phenyl)acetyl)morpholine-3-carboxylic Acid] | 100 to 1000 nM | 10 to 100 nM
C[C@H](CO)NC(=O)Cc1ccc(Nc2nc(-c3c(F)cccc3F)nc3c2C(=O)NC3)cc1 [Compound I-63, (R)-2-(4-((2-(2,6-difluorophenyl)-5-oxo-6,7-dihydro-5H-pyrrolo[3,4-d]pyrimidin-4-yl)amino)phenyl)-N-(1-hydroxypropan-2-yl)acetamide] | 100 to 1000 nM | < 10 nM
O=C1NCc2nc(-c3c(F)cccc3F)nc(Nc3ccc([C@@H]4CCN(C5CCC5)C4=O)cc3)c21 [Compound I-119, (S)-4-((4-(1-cyclobutyl-2-oxopyrrolidin-3-yl)phenyl)amino)-2-(2,6-difluorophenyl)-6,7-dihydro-5H-pyrrolo[3,4-d]pyrimidin-5-one] | 100 to 1000 nM | < 10 nM
CCNC(=O)Cc1ccc(Nc2cc(-c3c(F)cccc3Cl)nc3c2C(=O)NC3)nc1 [Compound I-199, 2-(6-((2-(2-chloro-6-fluorophenyl)-5-oxo-6,7-dihydro-5H-pyrrolo[3,4-b]pyridin-4-yl)amino)pyridin-3-yl)-N-ethylacetamide] | 10 to 100 nM | < 10 nM
CCNC(=O)C(C)(C)c1ccc(Nc2nc(-c3c(F)cccc3F)nc3c2C(=O)NC3)cc1 [Compound I-120, 2-(4-((2-(2,6-difluorophenyl)-5-oxo-6,7-dihydro-5H-pyrrolo[3,4-d]pyrimidin-4-yl)amino)phenyl)-N-ethyl-2-methylpropanamide] | 100 to 1000 nM | < 10 nM
CN1CC[C@](C)(c2ccc(Nc3nc(-c4c(F)cccc4F)nc4c3C(=O)NC4)cc2)C1=O [Compound I-152, (R)-2-(2,6-difluorophenyl)-4-((4-(1,3-dimethyl-2-oxopyrrolidin-3-yl)phenyl)amino)-6,7-dihydro-5H-pyrrolo[3,4-d]pyrimidin-5-one] | 100 to 1000 nM | < 10 nM
O=C1NCc2nc(-c3c(F)cccc3F)nc(Nc3ccc(C4CCCNC4=O)cc3)c21 (stereo not drawn) [Compound I-153, 2-(2,6-difluorophenyl)-4-((4-(2-oxopiperidin-3-yl)phenyl)amino)-6,7-dihydro-5H-pyrrolo[3,4-d]pyrimidin-5-one] | 100 to 1000 nM | < 10 nM
CN(CC(C)(C)O)C(=O)Cc1ccc(Nc2nc(-c3c(F)cccc3F)nc3c2C(=O)NC3)cc1 [Compound I-193, 2-(4-((2-(2,6-difluorophenyl)-5-oxo-6,7-dihydro-5H-pyrrolo[3,4-d]pyrimidin-4-yl)amino)phenyl)-N-(2-hydroxy-2-methylpropyl)-N-methylacetamide] | 100 to 1000 nM | < 10 nM
O=C(NC1CCOCC1)c1ccc(Nc2cc(-c3c(F)cccc3F)nc3c2C(=O)NC3)nc1 [Compound I-139, 6-((2-(2,6-difluorophenyl)-5-oxo-6,7-dihydro-5H-pyrrolo[3,4-b]pyridin-4-yl)amino)-N-(tetrahydro-2H-pyran-4-yl)nicotinamide] | 10 to 100 nM | < 10 nM
C[C@H](CO)NC(=O)Cn1cc(Nc2nc(-c3c(F)cccc3F)nc3c2C(=O)NC3)cn1 [Compound I-70, (R)-2-(4-((2-(2,6-difluorophenyl)-5-oxo-6,7-dihydro-5H-pyrrolo[3,4-d]pyrimidin-4-yl)amino)-1H-pyrazol-1-yl)-N-(1-hydroxypropan-2-yl)acetamide] | > 1000 nM | 10 to 100 nM
O=C1NCc2nc(-c3c(F)cccc3F)nc(Nc3ccc(CC(=O)N4CC5(COC5)C4)cc3)c21 [Compound I-62, 2-(2,6-difluorophenyl)-4-((4-(2-oxo-2-(2-oxa-6-azaspiro[3.3]heptan-6-yl)ethyl)phenyl)amino)-6,7-dihydro-5H-pyrrolo[3,4-d]pyrimidin-5-one] | 100 to 1000 nM | < 10 nM
O=C(Cc1ccc(Nc2nc(-c3c(F)cccc3F)nc3c2C(=O)NC3)cc1)NC1CC2(CNC2)C1 [Compound I-14, 2-(4-((2-(2,6-difluorophenyl)-5-oxo-6,7-dihydro-5H-pyrrolo[3,4-d]pyrimidin-4-yl)amino)phenyl)-N-(2-azaspiro[3.3]heptan-6-yl)acetamide] | 100 to 1000 nM | < 10 nM
CN1C(=O)[C@](C)(c2ccc(Nc3nc(-c4c(F)cccc4F)nc4c3C(=O)NC4)cc2)CC1(C)C [Compound I-221, (S)-2-(2,6-difluorophenyl)-4-((4-(1,3,5,5-tetramethyl-2-oxopyrrolidin-3-yl)phenyl)amino)-6,7-dihydro-5H-pyrrolo[3,4-d]pyrimidin-5-one] | 10 to 100 nM | < 10 nM
